These results are taken from patent US10034898B2, “Methods and systems for treatment of inflammatory diseases with nitric oxide” (priority 2012, dated 2018).

Experiment [1] deals with micro-capillary blood flow to skin. As to the kind of experiment: Laser Doppler capillary blood flow study, Example 5 (closed Hilltop chamber on forearm). It is filed as in vivo, humans. Particulars: applied to the skin at 1/10% in alcohol. As to the method:
This example illustrates delivery of nitric oxide formulations similar to those discussed herein in humans. In these studies, laser Doppler studies were performed on three human female subjects. […] The formulations used produce positive, almost immediate results when applied to the skin which, in these studies, was manifested by vasodilatation of the cutaneous vascular system.
While nitric oxide has many physiological effects, the purpose of these studies was to measure physiological effects that would be relatively easy to determine, and which would be noninvasive. […] Nitric oxide is capable of […] the capillary bed, and thus, laser Doppler was selected.
The formulation used in these studies contained nitric oxide dispersed in a lipid matrix. […] This provided a stable measuring device as determined by multiple normal evaluations of the capillary blood flow without treatment of nitric oxide.
A known positive control, methyl nicotinate, was applied to the skin at a concentration of 1/10% in alcohol. […] The laser Doppler device accurately measured these parameters.
In these studies, the participants were healthy females aged 30 to 55 years. They were in good health as determined by the medical history and were not taking any prescription medications. All study participants read and signed the informed consent statement prior to any study procedures being performed. […]

The subject of experiment [2] is capillary circulation of the skin. As to the kind of experiment: Laser Doppler circulation study in five human subjects, Example 7. It is filed as in vivo. The following applies: positive control formulation containing 0.1% methyl nicotinate, vs untreated skin. From the text:
This example illustrates delivery of nitric oxide formulations to five human subjects, using procedures and formulations similar to those discussed in Example 5. Each person served as their own control for the testing. A Moor Instruments Laser Doppler was used to determine circulation. […] The formulations used produce positive, almost immediate results when applied to the skin which, in these studies, was manifested by vasodilatation of the cutaneous vascular system.
For each subject, the following creams were applied: a negative control formulation (containing no NO), 0.010 gram of a 10,000 ppm NO formulation, 0.020 gram of a 10,000 ppm NO formulation, and a positive control formulation containing 0.1% methyl nicotinate. The formulations were prepared using procedures similar to those discussed in Example 1.

Take `COC(=O)c1cccnc1` [methyl nicotinate]: the “laser Doppler response of positive control” value in experiment [1] is on record as “rapid response typical of the vasodilator”. Also, the vasodilatation result in experiment [2] was “vasodilatation was observed”.
